Measurements taken from article PMC8760323, “Single-chain tandem macrocyclic peptides as a scaffold for growth factor and cytokine mimetics” (Communications Biology, 2022).

Key:
HEL cells [1] = assay: Phosphokinase array (TPO signal cascade); assay type: cell-based, human; conditions: 5.4 nM rhTPO or 1:1000 diluted TMP-PA8 supernatant, 20 min
Method: The TPO signal cascade was analyzed using the Proteome Profiler Human Phosphokinase Array Kit (R&D Systems). Briefly, 1 × 10^6 HEL cells in a 6-well cell culture dish were starved in RPMI 1640 medium for 24 h. The starved cells were stimulated by 5.4 nM rhTPO or 1:1000 diluted TMP-PA8 containing a C. glutamicum supernatant for 20 min, rinsed once with PBS, and lysed with 200 μL of lysis buffer 17 supplemented with a protease inhibitor cocktail. Lysates were analyzed using the Proteome Profiler Human Phosphokinase Array Kit (R&D Systems) according to the manufacturer’s instructions. Chemiluminescence was detected using Amersham Imager 600 (Cytiva).

HEL cells [2] = assay: Phospho-CREB ELISA; assay type: cell-based, human
Method: Here, 100,000 HEL cells were seeded on a 96-well cell culture plate in RPMI 1640 medium and incubated overnight for starvation. The starved cells were stimulated by rhTPO or TMP-PA8 for 20 min, rinsed once with PBS, and lysed with lysis buffer 17 supplemented with a protease inhibitor cocktail. The phosphorylation level of CREB was assessed using phospho-CREB (Ser133) and the Total CREB ELISA kit (RayBio) according to the manufacturer’s instructions. The amounts of phospho-CREB and total CREB were quantified by measuring absorbance at 450 nm, and the phospho-CREB level was calculated as (absorbance of pCREB)/(absorbance of total CREB).

rhTPO: recombinant human TPO (Peprotech)
phosphorylation of STAT3, STAT5, Erk1/2 and CREB compared with unstimulated cells (HEL cells [1]): enhanced | Normazlied pCREB/CREB (HEL cells [2]; 7.375 pM, replicate 1): 1.252 | Normazlied pCREB/CREB (HEL cells [2]; 7.375 pM, replicate 2): 0.9311 | Normazlied pCREB/CREB (HEL cells [2]; 7.375 pM, replicate 3): 0.9649 | Normazlied pCREB/CREB (HEL cells [2]; 22.12 pM, replicate 1): 1.113 | Normazlied pCREB/CREB (HEL cells [2]; 22.12 pM, replicate 2): 1.1408 | Normazlied pCREB/CREB (HEL cells [2]; 22.12 pM, replicate 3): 1.274 | Normazlied pCREB/CREB (HEL cells [2]; 66.37 pM, replicate 1): 1.03 | Normazlied pCREB/CREB (HEL cells [2]; 66.37 pM, replicate 2): 1.312 | Normazlied pCREB/CREB (HEL cells [2]; 66.37 pM, replicate 3): 1.353 | Normazlied pCREB/CREB (HEL cells [2]; 199.1 pM, replicate 1): 1.208 | Normazlied pCREB/CREB (HEL cells [2]; 199.1 pM, replicate 2): 1.421 | Normazlied pCREB/CREB (HEL cells [2]; 199.1 pM, replicate 3): 1.637 | Normazlied pCREB/CREB (HEL cells [2]; 597.4 pM, replicate 1): 1.281 | Normazlied pCREB/CREB (HEL cells [2]; 597.4 pM, replicate 2): 1.5026 | Normazlied pCREB/CREB (HEL cells [2]; 597.4 pM, replicate 3): 1.479 | Normazlied pCREB/CREB (HEL cells [2]; 1.79211e-9 M, replicate 1): 1.452 | Normazlied pCREB/CREB (HEL cells [2]; 1.79211e-9 M, replicate 2): 1.237 | Normazlied pCREB/CREB (HEL cells [2]; 1.79211e-9 M, replicate 3): 1.5195 | Normazlied pCREB/CREB (HEL cells [2]; 5.37634e-9 M, replicate 1): 1.523 | Normazlied pCREB/CREB (HEL cells [2]; 5.37634e-9 M, replicate 2): 0.9969 | Normazlied pCREB/CREB (HEL cells [2]; 5.37634e-9 M, replicate 3): 1.102 | promotion of CREB phosphorylation (HEL cells [2]; at concentrations of 0.1-1 nM): 1.5 fold
